In patent publication US8748666B2, “Preparation methods of methyl-D3-amine and salts thereof” (Suzhou Zelgen Biopharmaceutical Co., Ltd., priority 2010, dated 2014):

Tested on: human hepatocellular carcinoma SMMC-7721
Assay: Inhibition of tumor growth of human hepatocellular carcinoma SMMC-7721 in nude mice xenograft model
Type: in vivo, Balb/c nu/nu nude mice
Procedure: 70 Balb/c nu/nu nude mice, 6 weeks old, female, were bought from Shanghai Experimental Animal Resource Center (Shanghai B&K Universal Group Limited).
SMMC-7721 cells were commercially available from Shanghai Institutes for Biological Science, CAS (Shanghai, China).
The establishment of tumor nude mice xenograft model: SMMC-7721 cells in logarithmic growth period were cultured. After cell number was counted, the cells were suspended in 1×PBS, and the concentration of the cell suspension was adjusted to 1.5×10^7/ml. The tumor cells were inoculated under the skin of right armpit of nude mice with a 1 ml syringe, 3×10^6/0.2 ml/mice. 70 nude mice were inoculated in total.
When the tumor size reached 30-130 mm^3, 58 mice were divided randomly into the different groups. The difference of the mean value of tumor volume in each group was less than 10% and drugs were started to be administrated.
Animal body weight and tumor size were tested twice a week during the experiment. Clinical symptoms were recorded every day. At the end of the administration, the tumor size was recorded by taking pictures. One mouse was sacrificed in each group and tumor tissue was taken and fixed in 4% paraformaldehyde. Observation was continued after the administration, and when the mean size of tumor was larger than 2000 mm^3, or the dying status appeared, the animals were sacrificed, gross anatomy was conducted, and the tumor tissue was taken and fixed in 4% paraformaldehyde.
The formula for calculating the tumor volume (TV) is: TV=a×b^2/2, wherein a, b independently represent the length and the breadth of the tumor. The formula for calculating the relative tumor volume (RTV) is: RTV=Vt/V0, wherein V0 is the tumor volume at the beginning of the administration, and Vt is the […] when measured. The index for evaluating the antitumor activity is relative tumor increment rate T/C (%), and the formula is: T/C (%)=(TRTV/CRTV)×100%, wherein, TRTV is the RTV of the treatment group, and CRTV is the RTV of the negative control group.
Evaluation standard for efficacy: it is effective if the relative tumor increment rate T/C (%) is ≦40% and p<0.05 by statistics analysis.

[1] = 10 mg/kg po qd x 2 weeks, at the end of administration
[2] = 30 mg/kg po qd x 2 weeks, at the end of administration
[3] = 100 mg/kg po qd x 2 weeks, at the end of administration (day 15)

Row | SMILES | relative tumor increment rate T/C % [1] [%] | relative tumor increment rate T/C % [2] [%] | increase of relative value of tumor inhibition compared with CM4306 (32.2%/19.6%−1=64%) (100 mg/kg po qd x 2 weeks) | relative tumor increment rate T/C % [3] [%]
1 | [2H]C([2H])([2H])NC(=O)c1cc(Oc2ccc(NC(=O)Nc3ccc(Cl)c(C(F)(F)F)c3)cc2)ccn1 [CM4307, 4-(4-(3-(4-chloro-3-(trifluoromethyl)phenyl)ureido)-phenoxy)-N-(methyl-d3)picolinamide] | 53.6 | 40.8 | about 60% | 19.6
2 | [2H]C([2H])([2H])NC(=O)c1cc(Oc2ccc(NC(=O)Nc3ccc(Cl)c(C(F)(F)F)c3)cc2)ccn1 [CM4306, 4-(4-(3-(4-chloro-3-(trifluoromethyl)phenyl)ureido)-phenoxy)-2-(N-methyl)picolinamide, reference compound] | 56.9 | 40.6 | – | 32.2
